According to patent US9707305B2, “Formulas for diagnosing and treating hormone-dependent cancers and cancers of the organs responsible for steroid hormone synthesis” (Commissariat à l'énergie atomique et aux énergies …, priority 2011, dated 2017):

Assay: Biodistribution of the nano-emulsion of Example 1.1 (radioactivity and fluorescence per organ)
Assay type: in vivo
Procedure: In the following examples, the radioactivity was counted with the TRiCarb Counter (Ref: Packard, Liquid Scintillation Analyzers; Models 2200CA).
Fluobeam 700 (Fluoptics) is the apparatus with which the whole of the organs from the biodistribution were analyzed in fluorescence as well as the one with which the biodistribution kinetics of the nano-emulsions were established in vivo. This imaging system allows viewing of the fluorescence in spectral bands from 700 to 850 nm for a 650 nm excitation. The apparatus consists of an electric case containing the laser of class 3B, its power supply and an optical head containing the CCD camera.
The nano-emulsions of Example 1 were injected into FVB female and male mice. As a comparison, a mixture of three tracers ([3H]CHE, [14C]CO and DiD) (not formulated as a nano-emulsion) was injected in order to observe the distribution of the tracers in the absence of droplets being used as a distribution carrier.
Tables 6 to 14 provide the biodistribution results of each tracer ([3H]CHE, [14C]CO and DiD) expressed as a percentage of the dose injected per gram of tissue (or [3H]CHE and [14C]CO) or as fluorescence intensity (for DiD) depending on the organ of the mouse, 15 minutes (Table 6), 2 hours (Table 7), 4 hours (Table 8), 6 hours (Table 9), 16 hours (Table 10), 24 hours (Table 11), 72 hours (Table 12), 120 hours (Table 13) and 168 hours (Table 14), after injection into an FVB female mouse of the nano-emulsion of Example 1.1. (nano-emulsion according to the invention comprising the three tracers ([3H]CHE, [14C]CO and DiD).

[1] = 15 min after injection of nano-emulsion of Example 1.1, FVB female mouse
[2] = 2 h after injection of nano-emulsion of Example 1.1, FVB female mouse
[3] = 4 h after injection of nano-emulsion of Example 1.1, FVB female mouse
[4] = 16 h (Table 9 head) after injection of nano-emulsion of Example 1.1, FVB female mouse
[5] = 24 h (Table 10 head) after injection of nano-emulsion of Example 1.1, FVB female mouse
[6] = 48 h (Table 11 head) after injection of nano-emulsion of Example 1.1, FVB female mouse
[7] = 72 h after injection of nano-emulsion of Example 1.1, FVB female mouse
[8] = 120 h after injection of nano-emulsion of Example 1.1, FVB female mouse
[9] = 168 h after injection of nano-emulsion of Example 1.1, FVB female mouse

Structure (SMILES): CCCCCCCCCCCCCCCCO[C@H]1CC[C@@]2(C)C(=CC[C@H]3[C@@H]4CC[C@H]([C@H](C)CCCC(C)C)[C@@]4(C)CC[C@@H]32)C1 [[3H]CHE, cholesteryl hexadecylether]
- biodistribution, Adrenal glands (MEAN) [1]: 10.60 % of injected dose per gram of
- biodistribution, Brain (MEAN) [1]: 0.476 % of injected dose per gram of
- biodistribution, Fat (MEAN) [1]: 1.10 % of injected dose per gram of
- biodistribution, Heart (MEAN) [1]: 8.303 % of injected dose per gram of
- biodistribution, Intestine (MEAN) [1]: 1.71 % of injected dose per gram of
- biodistribution, Kidney (MEAN) [1]: 4.09 % of injected dose per gram of
- biodistribution, Liver (MEAN) [1]: 8.26 % of injected dose per gram of
- biodistribution, Lung (MEAN) [1]: 3.91 % of injected dose per gram of
- biodistribution, Muscle (MEAN) [1]: 0.675 % of injected dose per gram of
- biodistribution, Ovary (MEAN) [1]: 5.38 % of injected dose per gram of
- biodistribution, Pancreas (MEAN) [1]: 1.233 % of injected dose per gram of
- biodistribution, Salivary glands (MEAN) [1]: 1.157 % of injected dose per gram of
- biodistribution, Spleen (MEAN) [1]: 3.63 % of injected dose per gram of
- biodistribution, Uterus (MEAN) [1]: 0.90 % of injected dose per gram of
- biodistribution, Adrenal glands (MEAN) [2]: 21.12 % of injected dose per gram of
- biodistribution, Brain (MEAN) [2]: 0.26 % of injected dose per gram of
- biodistribution, Fat (MEAN) [2]: 0.76 % of injected dose per gram of
- biodistribution, Heart (MEAN) [2]: 4.64 % of injected dose per gram of
- biodistribution, Intestine (MEAN) [2]: 2.44 % of injected dose per gram of
- biodistribution, Kidneys (MEAN) [2]: 3.83 % of injected dose per gram of
- biodistribution, Liver (MEAN) [2]: 31.09 % of injected dose per gram of
- biodistribution, Lung (MEAN) [2]: 4.44 % of injected dose per gram of
- biodistribution, Muscle (MEAN) [2]: 0.45 % of injected dose per gram of
- biodistribution, Ovary (MEAN) [2]: 29.28 % of injected dose per gram of
- biodistribution, Pancreas (MEAN) [2]: 1.43 % of injected dose per gram of
- biodistribution, Salivary glands (MEAN) [2]: 1.42 % of injected dose per gram of
- biodistribution, Spleen (MEAN) [2]: 5.10 % of injected dose per gram of
- biodistribution, Uterus (MEAN) [2]: 2.23 % of injected dose per gram of
- biodistribution, Adrenal glands (MEAN) [3]: 28.13 % of injected dose per gram of
- biodistribution, Brain (MEAN) [3]: 0.19 % of injected dose per gram of
- biodistribution, Fat (MEAN) [3]: 1.40 % of injected dose per gram of
- biodistribution, Heart (MEAN) [3]: 4.94 % of injected dose per gram of
- biodistribution, Intestine (MEAN) [3]: 2.46 % of injected dose per gram of
- biodistribution, Kidney (MEAN) [3]: 2.51 % of injected dose per gram of
- biodistribution, Liver (MEAN) [3]: 37.43 % of injected dose per gram of
- biodistribution, Lungs (MEAN) [3]: 4.02 % of injected dose per gram of
- biodistribution, Muscle (MEAN) [3]: 0.41 % of injected dose per gram of
- biodistribution, Ovary (MEAN) [3]: 39.41 % of injected dose per gram of
- biodistribution, Pancreas (MEAN) [3]: 1.01 % of injected dose per gram of
- biodistribution, Salivary glands (MEAN) [3]: 1.09 % of injected dose per gram of
- biodistribution, Spleen (MEAN) [3]: 5.00 % of injected dose per gram of
- biodistribution, Uterus (MEAN) [3]: 1.69 % of injected dose per gram of
- biodistribution, Adrenal glands (MEAN) [4]: 43.16 % of injected dose per gram of
- biodistribution, Brain (MEAN) [4]: 0.13 % of injected dose per gram of
- biodistribution, Fat (MEAN) [4]: 1.36 % of injected dose per gram of
- biodistribution, Heart (MEAN) [4]: 3.49 % of injected dose per gram of
- biodistribution, Intestine (MEAN) [4]: 4.87 % of injected dose per gram of
- biodistribution, Kidney (MEAN) [4]: 2.06 % of injected dose per gram of
- biodistribution, Liver (MEAN) [4]: 47.67 % of injected dose per gram of
- biodistribution, Lungs (MEAN) [4]: 4.63 % of injected dose per gram of
- biodistribution, Muscle (MEAN) [4]: 0.76 % of injected dose per gram of
- biodistribution, Ovary (MEAN) [4]: 52.26 % of injected dose per gram of
- biodistribution, Pancreas (MEAN) [4]: 1.17 % of injected dose per gram of
- biodistribution, Salivary glands (MEAN) [4]: 1.27 % of injected dose per gram of
- biodistribution, Spleen (MEAN) [4]: 7.48 % of injected dose per gram of
- biodistribution, Uterus (MEAN) [4]: 3.91 % of injected dose per gram of
- biodistribution, Adrenal glands (MEAN) [5]: 39.68 % of injected dose per gram of
- biodistribution, Brain (MEAN) [5]: 0.09 % of injected dose per gram of
- biodistribution, Fat (MEAN) [5]: 0.88 % of injected dose per gram of
- biodistribution, Heart (MEAN) [5]: 3.53 % of injected dose per gram of
- biodistribution, Intestine (MEAN) [5]: 2.78 % of injected dose per gram of
- biodistribution, Kidney (MEAN) [5]: 1.50 % of injected dose per gram of
- biodistribution, Liver (MEAN) [5]: 48.76 % of injected dose per gram of
- biodistribution, Lung (MEAN) [5]: 3.21 % of injected dose per gram of
- biodistribution, Muscle (MEAN) [5]: 0.46 % of injected dose per gram of
- biodistribution, Ovary (MEAN) [5]: 38.06 % of injected dose per gram of
- biodistribution, Pancreas (MEAN) [5]: 0.64 % of injected dose per gram of
- biodistribution, Salivary glands (MEAN) [5]: 1.40 % of injected dose per gram of
- biodistribution, Spleen (MEAN) [5]: 7.50 % of injected dose per gram of
- biodistribution, Uterus (MEAN) [5]: 1.82 % of injected dose per gram of
- biodistribution, Adrenal glands (MEAN) [6]: 42.26 % of injected dose per gram of
- biodistribution, Brain (MEAN) [6]: 0.08 % of injected dose per gram of
- biodistribution, Fat (MEAN) [6]: 1.05 % of injected dose per gram of
- biodistribution, Heart (MEAN) [6]: 3.52 % of injected dose per gram of
- biodistribution, Intestine (MEAN) [6]: 4.43 % of injected dose per gram of
- biodistribution, Kidney (MEAN) [6]: 1.63 % of injected dose per gram of
- biodistribution, Liver (MEAN) [6]: 58.43 % of injected dose per gram of
- biodistribution, Lungs (MEAN) [6]: 3.91 % of injected dose per gram of
- biodistribution, Muscle (MEAN) [6]: 0.36 % of injected dose per gram of
- biodistribution, Ovary (MEAN) [6]: 36.42 % of injected dose per gram of
- biodistribution, Pancreas (MEAN) [6]: 1.00 % of injected dose per gram of
- biodistribution, Salivary glands (MEAN) [6]: 1.09 % of injected dose per gram of
- biodistribution, Spleen (MEAN) [6]: 12.32 % of injected dose per gram of
- biodistribution, Uterus (MEAN) [6]: 3.75 % of injected dose per gram of
- biodistribution, Adrenal glands (MEAN) [7]: 36.92 % of injected dose per gram of
- biodistribution, Brain (MEAN) [7]: 0.08 % of injected dose per gram of
- biodistribution, Fat (MEAN) [7]: 0.85 % of injected dose per gram of
- biodistribution, Heart (MEAN) [7]: 2.98 % of injected dose per gram of
- biodistribution, Intestine (MEAN) [7]: 3.58 % of injected dose per gram of
- biodistribution, Kidney (MEAN) [7]: 1.27 % of injected dose per gram of
- biodistribution, Liver (MEAN) [7]: 39.73 % of injected dose per gram of
- biodistribution, Lungs (MEAN) [7]: 2.95 % of injected dose per gram of
- biodistribution, Muscle (MEAN) [7]: 0.22 % of injected dose per gram of
- biodistribution, Ovary (MEAN) [7]: 25.11 % of injected dose per gram of
- biodistribution, Pancreas (MEAN) [7]: 0.74 % of injected dose per gram of
- biodistribution, Salivary glands (MEAN) [7]: 1.10 % of injected dose per gram of
- biodistribution, Spleen (MEAN) [7]: 7.65 % of injected dose per gram of
- biodistribution, Uterus (MEAN) [7]: 5.63 % of injected dose per gram of
- biodistribution, Adrenal gland (MEAN) [8]: 41.92 % of injected dose per gram of
- biodistribution, Brain (MEAN) [8]: 0.08 % of injected dose per gram of
- biodistribution, Fat (MEAN) [8]: 0.68 % of injected dose per gram of
- biodistribution, Heart (MEAN) [8]: 2.59 % of injected dose per gram of
- biodistribution, Intestine (MEAN) [8]: 3.60 % of injected dose per gram of
- biodistribution, Kidney (MEAN) [8]: 1.29 % of injected dose per gram of
- biodistribution, Liver (MEAN) [8]: 39.13 % of injected dose per gram of
- biodistribution, Lungs (MEAN) [8]: 3.30 % of injected dose per gram of
- biodistribution, Muscle (MEAN) [8]: 0.27 % of injected dose per gram of
- biodistribution, Ovary (MEAN) [8]: 16.92 % of injected dose per gram of
- biodistribution, Pancreas (MEAN) [8]: 1.00 % of injected dose per gram of
- biodistribution, Salivary glands (MEAN) [8]: 2.14 % of injected dose per gram of
- biodistribution, Spleen (MEAN) [8]: 9.69 % of injected dose per gram of
- biodistribution, Uterus (MEAN) [8]: 4.99 % of injected dose per gram of
- biodistribution, Adrenal glands (MEAN) [9]: 29.30 % of injected dose per gram of
- biodistribution, Brain (MEAN) [9]: 0.07 % of injected dose per gram of
- biodistribution, Fat (MEAN) [9]: 0.99 % of injected dose per gram of
- biodistribution, Heart (MEAN) [9]: 2.19 % of injected dose per gram of
- biodistribution, Intestine (MEAN) [9]: 2.80 % of injected dose per gram of
- biodistribution, Kidneys (MEAN) [9]: 1.44 % of injected dose per gram of
- biodistribution, Liver (MEAN) [9]: 32.70 % of injected dose per gram of
- biodistribution, Lungs (MEAN) [9]: 1.70 % of injected dose per gram of
- biodistribution, Muscle (MEAN) [9]: 0.37 % of injected dose per gram of
- biodistribution, Ovary (MEAN) [9]: 20.61 % of injected dose per gram of
- biodistribution, Pancreas (MEAN) [9]: 0.79 % of injected dose per gram of
- biodistribution, Salivary glands (MEAN) [9]: 2.01 % of injected dose per gram of
- biodistribution, Spleen (MEAN) [9]: 10.71 % of injected dose per gram of
- biodistribution, Uterus (MEAN) [9]: 4.86 % of injected dose per gram of
